Results reported in patent US8637468B2, “Synthetic cholesterylamine-linker derivatives for agent delivery into cells” (The University of Kansas, priority 2009, dated 2014).
Like-named read-outs stand apart in the source and are kept apart here.

Tests used:
[1] = test system: plasma membranes of living Jurkat lymphocytes; test: Saturation binding of fluorescent probes to living Jurkat lymphocytes (flow cytometry); set-up: species or system human; conditions: for Bmax (×10^5, 16° C.) / Kd / Bmax (×10^5, 37° C.): media containing 10% FBS, free cholesterol (200 μM, 10% DMSO) as competitor; for binding to mammalian cells (affinity/efficacy, in words): high concentrations of serum (10%)
Procedure: Jurkat lymphocytes (human acute leukemia, ATCC #TIB-152) were cultivated in Roswell Park Memorial Institute (RPMI) 1640 medium supplemented with Fetal Bovine Serum (FBS, 10%), penicillin (100 units/mL), and streptomycin (100 μg/mL) in a humidified 5% CO2 incubator at 37° C. Media used for cell culture and all wash steps contained antibiotics and 10% FBS unless otherwise noted.
(§1) Cells were suspended at 300,000 cells/mL in RPMI media containing 10% FBS. Ezetimibe (100 μM; diluted 1:1000 into media from a 100 mM stock in DMSO; 0.1% final DMSO concentration), free cholesterol (200 μM; diluted 1:10 into media from a 2 mM stock in DMSO; 10% final DMSO concentration to enhance cholesterol solubility) or vehicle control (DMSO) was added in competition experiments. Cell suspensions containing the competitor or vehicle control were prepared as 1 mL aliquots in 1.5 mL eppindorf tubes. Fluorescent probes were added at concentrations from 0 nM to 2500 nM (diluted 1:1000 into media from stocks in DMSO). Once the probe was added and well mixed, the samples were split into three tubes each containing 330 μL. Cells were incubated at 16° C. for 10 min or 37° C. for 5 minutes to limit endocytosis. After this incubation, the samples were washed once with RPMI 1640 containing 0.5% FBS (to minimize efflux of the probe from the cell surface) and propidium iodide (3 μM). Samples were immediately analyzed by flow cytometry or confocal laser-scanning microscopy.
Populations of 10,000 Jurkat cells were analyzed for each sample using an Accuri C6 flow cytometer equipped with 488 nm and 640 nm solid-state lasers. Live cells were gated using both forward scattering (FSC) and side scattering (SSC) dot plots to identify cellular physical properties of size and granularity and propidium iodide to identify cells with compromised membranes. The average cellular fluorescence upon excitation at 488 nm was plotted against probe concentration, and the data analyzed as total binding (no competitor added) and a linear non-specific binding component (with cholesterol or ezetimibe as a specific competitor) to calculate specific binding curves. Using GraphPad Prism 5.0 software, these curves were analyzed with a one site with hill slope binding model to determine the relative apparent Kd and Bmax values listed in Table 1 below.
Using free cholesterol (compound 1, 200 μM, 10% DMSO) as a competitor, we quantified the relative affinities (Kd, app) and efficacies (Bmax) of compounds 4-12 in saturation binding experiments at both 16° C. (to limit endocytosis) and 37° C. (FIG. 4 and Table 1). These experiments confirmed the combined importance the N-alkyl substituent of cholesterylamine, an anionic functional group, and a spacer residue such as β-alanine to engender high affinity binding to cell surfaces and facilitate subsequent endocytosis.

Jurkat lymphocytes = test: Confocal laser scanning microscopy of living Jurkat lymphocytes treated with fluorescent probes; type: cell-based, human; conditions: 2 μM, 10% serum
Procedure: FIG. 3 includes micrographs showing differential interference contrast (DIC) and confocal laser scanning microscopy of living Jurkat lymphocytes in media containing 10% serum treated at 37° C. with fluorescent compound 4 (Panels A-E), compound 6 (F-G), and compound 12 (H-I) for 5 min or 1 h (2 μM). In C and D, ezetimibe (compound 3, 100 μM in 0.1% DMSO) and cholesterol (compound 1, 200 μM in 10% DMSO) were included as competitors to block uptake via cell surface receptors.
An inverted Leica TCS SPE confocal laser-scanning microscope fitted with a Leica 63× oil-immersion objective was employed for imaging. Fluorescent probes were excited with a 488 nm solid-state laser and emitted photons were collected from 495-600 nm. Propidium iodide, used to counterstain dead cells red fluorescent, was excited with a 532 nm solid-state laser and emitted photons were collected from 650-800 nm. To image living cells, 50 μL of cells in media was pipetted to form a small droplet in the center of a coverslip fitted with a press-to-seal silicone isolator (Invitrogen). A microscope slide was added to the top of the coverslip to create a column of media containing living cells. To allow accurate comparisons of differences in cellular fluorescence, laser power and PMT gain settings were identical for all samples.
as §1, with “Once the probe was added and well mixed, the samples were split into three tubes each containing 330 μL. Cells were incubated at 16° C. for 10 min or 37° C. for 5 minutes to limit endocytosis. After this incubation, the samples were washed once with RPMI 1640 containing 0.5% FBS (to minimize efflux of the probe from the cell surface) and propidium iodide (3 μM).” left out

[2] = 16° C., 10 min, read-out: Kd, app (nM, 16° C.)
[3] = 37° C., 5 min, read-out: Kd, app (nM, 37° C.)

| SMILES | Bmax (×10^5, 16° C.) ([1]; 16° C., 10 min) | Kd [1, 2] | Bmax (×10^5, 37° C.) ([1]; 37° C., 5 min) | Kd [1, 3] | binding to mammalian cells (affinity/efficacy, in words) [1] | melting point | cellular binding and cellular uptake compared with compound 4 (Jurkat lymphocytes; 5 min or 1 h, 37° C.) | fluorescent staining of cells (Jurkat lymphocytes; 5 minutes at 37° C.) | cellular binding, uptake and localization (Jurkat lymphocytes; after 1 hour, 37° C.) |
| --- | --- | --- | --- | --- | --- | --- | --- | --- | --- |
| Cc1cc(C(=O)N[C@@H](CCC(=O)O)C(=O)N[C@@H](CCC(=O)O)C(=O)NCCC(=O)NCCCN[C@H]2CC[C@@]3(C)C(=CC[C@H]4[C@@H]5CC[C@H]([C@H](C)CCCC(C)C)[C@@]5(C)CC[C@@H]43)C2)ccc1-c1c2cc(F)c(=O)cc-2oc2cc(O)c(F)cc12 [compound 5, (4S)-5-{[(1S)-3-Carboxy-1-({[3-({3-[3β-cholest-5-en-3-ylamino]propyl}amino)-3-oxopropyl]amino}carbonyl)propyl]amino}-4-{[4-(2,7-difluoro-6-hydroxy-3-oxo-3H-xanthen-9-yl)-3-methylbenzoyl]amino}-5-oxopentanoic acid] | 3.93 ± 0.64 ×10^5 | 767 ± 244 nM | 3.01 ± 0.26 ×10^5 | 449 ± 74 nM | high affinity/efficacy |  |  |  |  |
| Cc1cc(C(=O)N[C@@H](CCC(=O)O)C(=O)NCCC(=O)NCCCO[C@H]2CC[C@@]3(C)C(=CC[C@H]4[C@@H]5CC[C@H]([C@H](C)CCCC(C)C)[C@@]5(C)CC[C@@H]43)C2)ccc1-c1c2cc(F)c(=O)cc-2oc2cc(O)c(F)cc12 [compound 9, (4S)-5-{[3-({3-[3β-Cholest-5-en-3-yloxy]propyl}amino)-3-oxopropyl]amino}-4-{[4-(2,7-difluoro-6-hydroxy-3-oxo-3H-xanthen-9-yl)-3-methylbenzoyl]amino}-5-oxopentanoic acid] | 1.68 ± 0.26 ×10^5 | 954 ± 285 nM |  |  |  | 192 to 194 °C |  |  |  |
| Cc1cc(C(=O)N[C@@H](CCC(=O)O)C(=O)NCCC(=O)NCCC(=O)N[C@H]2CC[C@@]3(C)C(=CC[C@H]4[C@@H]5CC[C@H]([C@H](C)CCCC(C)C)[C@@]5(C)CC[C@@H]43)C2)ccc1-c1c2cc(F)c(=O)cc-2oc2cc(O)c(F)cc12 [compound 10, (4S)-4-(4-(2,7-difluoro-6-hydroxy-3-oxo-3H-xanthen-9-yl)-3-methylbenzamido)-5-((3-((3-{[3β-cholest-5-en-3-yl]amino}-3-oxopropyl)amino)-3-oxopropyl)amino)-5-oxopentanoic acid] | 1.86 ± 0.39 ×10^5 | 786 ± 358 nM | 2.2 ± 0.30 ×10^5 | 639 ± 190 nM |  | 192 to 194 °C |  |  |  |
| Cc1cc(C(=O)N[C@@H](CCC(=O)O)C(=O)NCC(=O)NCCNC(=O)OC2CC[C@@]3(C)C(=CC[C@H]4[C@@H]5CC[C@H]([C@H](C)CCCC(C)C)[C@@]5(C)CC[C@@H]43)C2)ccc1-c1c2cc(F)c(=O)cc-2oc2cc(O)c(F)cc12 (stereo partly drawn) [compound 12, (4S)-4-(4-(2,7-difluoro-6-hydroxy-3-oxo-3H-xanthen-9-yl)-3-methylbenzamido)-5-(3-((3-((({[3-cholester-3-y]oxy}carbonyl)amino)ethyl)amino)-2-oxoethyl)amino)-5-oxopentanoic acid] | NC^b (Not calculated due to low efficacy (Bmax<0.4×105)) |  | NC^b (Not calculated due to low efficacy (Bmax<0.4×105)) |  |  |  | substantially lower cellular binding and cellular uptake compared with compound 4 |  |  |
| Cc1cc(C(=O)N[C@@H](CCC(=O)O)C(=O)N[C@@H](CCC(=O)O)C(=O)NCCCN[C@H]2CC[C@@]3(C)C(=CC[C@H]4[C@@H]5CC[C@H]([C@H](C)CCCC(C)C)[C@@]5(C)CC[C@@H]43)C2)ccc1-c1c2cc(F)c(=O)cc-2oc2cc(O)c(F)cc12 [compound 7, (4S)-5-(((2S)-4-carboxy-1-((3-[3β-cholest-5-en-3-ylamino]propyl)amino)-1-oxobutan-2-yl)amino)-4-(4-(2,7-difluoro-6-hydroxy-3-oxo-3H-xanthen-9-yl)-3-methylbenzamido)-5-oxopentanoic acid] |  |  | 3.2 ± 1.3 ×10^5 | 1540 ± 1140 nM |  | 175 to 178 °C |  |  |  |
| CC[C@H](CC[C@@H](C)[C@H]1CC[C@H]2[C@@H]3CC=C4C[C@@H](NCCCNC(=O)CCNC(=O)[C@H](CCC(=O)O)NC(=O)c5ccc(-c6c7cc(F)c(=O)cc-7oc7cc(O)c(F)cc67)c(C)c5)CC[C@]4(C)[C@H]3CC[C@]12C)C(C)C [compound 8, (4S)-5-{[3-({3-[3β-Sitost-5-en-3-ylamino]propyl}amino)-3-oxopropyl]amino}-4-{[4-(2,7-difluoro-6-hydroxy-3-oxo-3H-xanthen-9-yl)-3-methylbenzoyl]amino}-5-oxopentanoic acid] | 0.73 ± 0.03 ×10^5 | 286 ± 27 nM | 1.3 ± 0.29 ×10^5 | 435 ± 221 nM |  |  |  |  |  |
| Cc1cc(C(=O)NCC(=O)NCCC(=O)NCCCN[C@H]2CC[C@@]3(C)C(=CC[C@H]4[C@@H]5CC[C@H]([C@H](C)CCCC(C)C)[C@@]5(C)CC[C@@H]43)C2)ccc1-c1c2cc(F)c(=O)cc-2oc2cc(O)c(F)cc12 [compound 6, N-(2-{[3-({3-[3β-Cholest-5-en-3-ylamino]propyl}amino)-3-oxopropyl]amino}-2-oxoethyl)-4-(2,7-difluoro-6-hydroxy-3-oxo-3H-xanthen-9-yl)-3-methylbenzamide] |  |  | NC^b (Not calculated due to low efficacy (Bmax<0.4×105)) |  |  | 200 to 203 °C |  |  |  |
| Cc1cc(C(=O)N[C@@H](CCC(=O)O)C(=O)NCCC(=O)NCCCN[C@H]2CC[C@@]3(C)C(=CC[C@H]4[C@@H]5CC[C@H]([C@H](C)CCCC(C)C)[C@@]5(C)CC[C@@H]43)C2)ccc1-c1c2cc(F)c(=O)cc-2oc2cc(O)c(F)cc12 [compound 4, (4S)-5-{[3-({3-[3β-Cholest-5-en-3-ylamino]propyl}amino)-3-oxopropyl]amino}-4-{[4-(2,7-difluoro-6-hydroxy-3-oxo-3H-xanthen-9-yl)-3-methylbenzoyl]amino}-5-oxopentanoic acid] | 2.31 ± 0.14 ×10^5 | 403 ± 49 nM | 2.54 ± 0.12 ×10^5 | 344 ± 32 nM | high affinity/efficacy |  |  | robust fluorescent staining of cellular plasma membranes | enhanced cellular binding, uptake of the probe, and localization of compound 4 in transferrin-positive early/recycling endosomes |
| Cc1cc(C(=O)N[C@@H](CCC(=O)O)C(=O)NCCC(=O)NCCC(=O)OC2CC[C@@]3(C)C(=CC[C@H]4[C@@H]5CC[C@H]([C@H](C)CCCC(C)C)[C@@]5(C)CC[C@@H]43)C2)ccc1-c1c2cc(F)c(=O)cc-2oc2cc(O)c(F)cc12 (stereo partly drawn) [compound 11, (4S)-4-(4-(2,7-difluoro-6-hydroxy-3-oxo-3H-xanthen-9-yl)-3-methylbenzamido)-5-((3-((3-{[3-cholester-3-yl]oxy}3-oxopropyl)amino)-3-oxopropyl)amino)-5-oxopentanoic acid] | NC^b (Not calculated due to low efficacy (Bmax<0.4×105)) |  | NC^b (Not calculated due to low efficacy (Bmax<0.4×105)) |  |  |  |  |  |  |
